Holding throughout (type): functional
The test system of assay [1] is Periplaneta americana. As to the kind of experiment: Insecticidal activity against adult male Periplaneta americana (American cockroach) dosed through injection into abdomen assessed as mortality measured 24 hr post dose.
Assay [2] has as its system Periplaneta americana. Nature of the assay: Insecticidal activity against adult male Periplaneta americana (American cockroach) dosed through injection into abdomen assessed as mortality measured 24 hr post dose pre-treated with 50 ug metabolic inhibitor PB and 50 ug NIA 1 hr before compound injection.
The test system of assay [3] is Abdominal central nerve cord. Nature of the assay: Neuroblocking activity in adult male Periplaneta americana (American cockroach) abdominal central nerve cords containing fifth and sixth ganglia assessed as neuroblocking concentration to supress frequncy below 10 counts/30 sec measured at 22 to 25 degC.

For the compound `O=[N+]([O-])/N=C1/N(CCCCCCN2CCN(Cc3cnc(Cl)s3)/C2=N/[N+](=O)[O-])CCN1Cc1cnc(Cl)s1`, the MLD with Periplaneta americana [1] is reported as 8.9 nmol; in the assay on Periplaneta americana [2], 1.1 nmol.
Take `O=[N+]([O-])/N=C(/NCCCCCCN/C(=N\[N+](=O)[O-])NCc1ccc(Cl)nc1)NCc1ccc(Cl)nc1`: the MLD is over 129 nmol in the assay with Periplaneta americana [1] and 25.7 nmol with Periplaneta americana [2]. For the same compound, in assay [3], the BC was 26.3 µM.
Turning to `O=[N+]([O-])/N=C(/NCCCCCCN/C(=N\[N+](=O)[O-])NCc1cnc(Cl)s1)NCc1cnc(Cl)s1`, the MLD was over 134 nmol in the assay on Periplaneta americana [1] and 85.1 nmol with Periplaneta americana [2]. The BC in assay [3] worked out at 14.8 µM.
On the same counts, the results for `O=[N+]([O-])/N=C1\N(Cc2ccc(Cl)nc2)CCN1Cc1cccc(CN2CCN(Cc3ccc(Cl)nc3)/C2=N/[N+](=O)[O-])c1CN1CCN(Cc2ccc(Cl)nc2)/C1=N\[N+](=O)[O-]` are 34 nmol, 3.4 nmol and 100 µM.
As for `O=[N+]([O-])/N=C1\N(Cc2ccc(Cl)nc2)CCN1Cc1cccc(CN2CCN(Cc3ccc(Cl)nc3)/C2=N/[N+](=O)[O-])c1`, the MLD amounted to 20 nmol with Periplaneta americana [1] and 1 nmol in the assay on Periplaneta americana [2].
In the case of `O=[N+]([O-])/N=C1/N(CCCCCCN2CCN(Cc3ccc(Cl)nc3)/C2=N/[N+](=O)[O-])CCN1Cc1ccc(Cl)nc1` [Hexamethylene 1,6-bis-imadacloprid], the MLD in the assay with Periplaneta americana [1] amounted to 2.2 nmol; in the assay with Periplaneta americana [2], 0.29 nmol. Besides, the BC in assay [3] worked out at 3.7 µM.
With `O=[N+]([O-])/N=C1\NCCN1Cc1ccc(Cl)nc1` [IMIDACLOPRID], the MLD in the assay on Periplaneta americana [1] is given as 1.1 nmol; in the assay on Periplaneta americana [2], 0.071 nmol. Further, in assay [3], the BC was determined as 2.3 µM.

For the origin of these results see ChEMBL document CHEMBL3046820, “1,6-Bis[1-(2-chloro-5-thiazolylmethyl)-2-nitroiminoimidazolidin-3-yl]hexane and 1,3,5-tris[1-(6-chloronicotinyl)-2-nitroiminoimidazolidin-3-ylmethyl]benzeneSynthesis and insecticidal and neuroblocking activities in American cockroaches, Periplaneta americana” (2006).
